In experiment [1] the test system is Ishikawa. The experiment is described as follows: Anticancer activity against human Ishikawa cells assessed as cell mortality rate at 600 uM measured after 48 hrs by MTT assay relative to control. It is filed as functional. For orientation: Tetrazolium dyes change colour on reduction, which living cells bring about.
The subject of experiment [2] is Ishikawa. As to the kind of experiment: Anticancer activity against human Ishikawa cells assessed as cell mortality rate at 100 uM measured after 48 hrs by MTT assay relative to control. The experiment is classed as functional.
Experiment [3] relates to Ishikawa. As to the kind of experiment: Anticancer activity against human Ishikawa cells assessed as cell mortality rate at 100 uM measured after 24 hrs by MTT assay relative to control. It is filed as functional.
In experiment [4] the test system is Ishikawa. The experiment is described as follows: Antiproliferative activity against human Ishikawa cells assessed as inhibition of VEGF secretion measured after 24 hrs by ELISA assay. The experiment is classed as functional, cell-based.
Experiment [5] deals with Ishikawa. The experiment is described as follows: Antiproliferative activity against human Ishikawa cells assessed as reduction in cell viability. It is filed as functional, cell-based.
For experiment [6], the system named is Ishikawa. As to the kind of experiment: Antiproliferative activity against human Ishikawa cells assessed as combination index at 0.5 mM incubated for 48 hrs in presence of paclitaxel by MTT assay. It is filed as functional.
The subject of experiment [7] is ECC-1. The experiment is described as follows: Antiproliferative activity against human ECC-1 cells assessed as combination index at 0.5 mM incubated for 48 hrs in presence of paclitaxel by MTT assay. The experiment is classed as functional.
For experiment [8], the system named is HEC-1B cell line. As to the kind of experiment: Antiproliferative activity against human HEC-1B cell line assessed as reduction in cell viability.
In experiment [9] the test system is ECC-1. As to the kind of experiment: Antitumor activity against human ECC-1 cells xenografted in LKB1fl/flp53fl/fl mouse assessed as tumor growth inhibition (reference value: 68 %). The experiment is classed as functional. A general note: A xenograft is tissue or cells of one species grown in another, often human tumour cells in immunodeficient mice.
Experiment [10] has as its system USPC-ARK-1. The experiment is described as follows: Antiproliferative activity against human USPC-ARK-1 cells assessed as reduction in cell viability incubated for 72 hrs by MTT assay. The settings on record: USPC-ARK-1, 72 h. The experiment is classed as functional, cell-based.
The test system of experiment [11] is SPEC-2. The experiment is described as follows: Induction of apoptosis in human SPEC-2 cells assessed as decrease in mitochondrial membrane potential at 5 uM incubated for 8 hrs by JC-1 fluorescent probe based plate reader analysis. The experiment is classed as functional. Set-up: scale not given: the % may be the effect or the level left.
The subject of experiment [12] is SPEC-2. As to the kind of experiment: Induction of cell death in human SPEC-2 cells assessed as increase in ROS level at 5 uM incubated for 24 hrs by DCFH-DA based microplate reader analysis relative to control. The experiment is classed as functional.
Experiment [13] concerns USPC-ARK-1. As to the kind of experiment: Induction of apoptosis in human USPC-ARK-1 cells assessed as decrease in mitochondrial membrane potential at 5 uM incubated for 8 hrs by JC-1 fluorescent probe based plate reader analysis. The experiment is classed as functional. Set-up: scale not given: the % may be the effect or the level left.
In experiment [14] the test system is USPC-ARK-1. As to the kind of experiment: Induction of cell death in human USPC-ARK-1 cells assessed as increase in ROS level at 5 uM incubated for 24 hrs by DCFH-DA based microplate reader analysis relative to control. It is filed as functional.
For experiment [15], the system named is SPEC-2. As to the kind of experiment: Inhibition of cell invasion in serum-starved human SPEC-2 cells at 0.05 to 5 uM incubated for 3.5 hrs by calcein AM staining based plate reader analysis relative to control. It is filed as functional. The settings on record: dose 0.05-5 µM.
For experiment [16], the system named is SPEC-2. As to the kind of experiment: Induction of cell death in human SPEC-2 cells assessed as increase in caspase-9 by measuring fold change using […] as substrate at 5 uM incubated for 24 hrs followed by substrate addition and measured after 30 mins by ELISA analysis. Conditions: time 1470 min, 24.5 h. It is filed as functional. (In general: An ELISA detects its analyte on a solid surface through an enzyme-linked reagent.)

In experiment [17] the test system is SPEC-2. As to the kind of experiment: Antiproliferative activity against human SPEC-2 cells assessed as reduction in cell viability incubated for 72 hrs by MTT assay. It is filed as functional, cell-based. The settings on record: SPEC-2, 72 h.
Experiment [18] concerns SPEC-2. As to the kind of experiment: Induction of cell death in human SPEC-2 cells assessed as increase in cleaved caspase-3 by measuring fold change using Ac-DEVD-AMC as substrate at 5 uM incubated for 24 hrs followed by substrate addition and measured after 30 mins by ELISA analysis. It is filed as functional. The settings on record: time 1470 min, 24.5 h.
In experiment [19] the test system is USPC-ARK-1. As to the kind of experiment: Inhibition of cell invasion in serum-starved human USPC-ARK-1 cells at 0.05 to 5 uM incubated for 3.5 hrs by calcein AM staining based plate reader analysis relative to control. It is filed as functional. Conditions: dose 0.05-5 µM.
Experiment [20] has as its system USPC-ARK-1. The experiment is described as follows: Induction of cell death in human USPC-ARK-1 cells assessed as increase in cleaved caspase-3 by measuring fold change using Ac-DEVD-AMC as substrate at 5 uM incubated for 24 hrs followed by substrate addition and measured after 30 mins by ELISA analysis. It is filed as functional. The settings on record: time 1470 min, 24.5 h.

Experiment [21] concerns USPC-ARK-1. As to the kind of experiment: Induction of cell death in human USPC-ARK-1 cells assessed as increase in caspase-9 by measuring fold change using […] as substrate at 5 uM incubated for 24 hrs followed by substrate addition and measured after 30 mins by ELISA analysis. The experiment is classed as functional. The settings on record: time 1470 min, 24.5 h.

The subject of experiment [22] is Ishikawa. The experiment is described as follows: Antitumor activity against human Ishikawa cells xenografted in LKB1fl/flp53fl/fl mouse assessed as tumor growth inhibition (reference value: 68 %). It is filed as functional.
Experiment [23] deals with Ishikawa. As to the kind of experiment: Antiproliferative activity against human Ishikawa cells assessed as combination index incubated for 48 hrs in presence of Metformin by MTT assay. The experiment is classed as functional.
The subject of experiment [24] is ECC-1. The experiment is described as follows: Antiproliferative activity against human ECC-1 cells assessed as reduction in cell viability. It is filed as functional, cell-based.
The subject of experiment [25] is ECC-1. The experiment is described as follows: Antiproliferative activity against human ECC-1 cells assessed as combination index incubated for 48 hrs in presence of Metformin by MTT assay. The experiment is classed as functional.
Experiment [26] relates to HEC-1B cell line. As to the kind of experiment: Induction of apoptosis in human HEC-1B cell line assessed as fold change incubated for 48 hrs. It is filed as functional.
For experiment [27], the system named is RL95-2. The experiment is described as follows: Induction of apoptosis in human RL95-2 cells assessed as fold change incubated for 48 hrs. It is filed as functional.
Experiment [28] deals with Ishikawa. The experiment is described as follows: Induction of apoptosis in human Ishikawa cell line assessed as fold change incubated for 48 hrs. The experiment is classed as functional.

Data on 15 molecules can be found in ChEMBL document CHEMBL5532750, “Small molecule targeted therapies for endometrial cancer: progress, challenges, and opportunities” (RSC Med Chem, 2024).

Broadly, the IC50 is the concentration that gives 50% inhibition. A word on the TGI: it is how far tumour growth fell short of that in controls.

Bounds are passed on as bounds.

For the molecule `CC(C)CC(/N=C/c1cccc(B(O)O)c1)C(=O)O` (stereo not drawn), the Activity in [1] is on record as 88.3%.
Consider `OB(O)c1ccc(/C=N/c2cccc3cccc(/N=C/c4ccc(B(O)O)cc4)c23)cc1`, for which the Activity in experiment [2] is listed as 72%.
Consider `CC(C)CC(/N=C/c1ccc(B(O)O)cc1)C(=O)O` (stereo not drawn), for which the Activity in experiment [1] stood at 76%.
As to `OB(O)c1cccc(/C=N/c2ccc(-c3ccc(/N=C/c4cccc(B(O)O)c4)cc3)cc2)c1`, the Activity in experiment [2] was 84%.
Take `O=C(O)CSC[C@H](/N=C/c1ccc(B(O)O)cc1)C(=O)O`: the Activity is on record as 49% in experiment [2] and 54% in [3].
On to `O=C(O)c1ccc(C(=O)O)c(/N=C/c2ccc(B(O)O)cc2)c1`, for which, in experiment [1], the Activity is listed as 72%.
Turning to `O=C(O)CN=C(/N=C/c1ccc(B(O)O)cc1)/N=C/c1ccc(B(O)O)cc1`, the Activity in experiment [1] is reported as 18%.
As to `OB(O)c1ccc(/C=N/c2ccc(-c3ccc(/N=C/c4ccc(B(O)O)cc4)cc3)cc2)cc1`, the Activity in [1] is recorded as 14%.
On to `CCN(CC)CCCOc1ccc(-n2c3c(c4ccccc4c2=O)C(=O)c2ccccc2-3)cc1`, for which the 50% inhibitory concentration (IC50) in experiment [4] is 3.08 nM.
Consider `O=c1[nH]cc(F)c(=O)[nH]1` [FLUOROURACIL], for which the IC50 in experiment [5] is more than 100000 nM.
As for `CN(C)C(=N)NC(=N)N` [METFORMIN], the CI in experiment [6] and in experiment [7] was less than 1 in each case.
`NC(=O)c1cccc2cn(-c3ccc([C@@H]4CCCNC4)cc3)nc12` [NIRAPARIB]: the values for the IC50 in experiment [8] and in [5] were 127 nM and 24 nM, respectively.
On to `O=C1C2=C(CCN(Cc3ccccc3)C2)N2CCN=C2N1Cc1ccc(F)cc1F` [ONC-206], for which the tumour growth inhibition (TGI) in experiment [9] and in experiment [22] was 73% each time. The IC50 in experiment [10] came out at 330 nM; in experiment [17] it was 240 nM. Moreover, the Activity is 16% in [11], 83% in [12], 16% in experiment [13] and 83% in [14]. In addition, the “inhibition (INH)” value in [15] was 34%; in [19] it was 26.6%. Besides, the “fold change (FC)” value in experiment [16] came out at 1.4; in [18], 1.4; in experiment [20] it was 1.7; in [21], 1.5.
As to `CC(=O)O[C@H]1C(=O)[C@@]2(C)[C@H]([C@H](OC(=O)c3ccccc3)[C@]3(O)C[C@H](OC(=O)[C@H](O)[C@@H](NC(=O)c4ccccc4)c4ccccc4)C(C)=C1C3(C)C)[C@]1(OC(C)=O)CO[C@@H]1C[C@@H]2O` [PACLITAXEL], the IC50 in experiment [5] came to 0.5 nM; in [24], 0.1 nM. The CI in [23] and in experiment [25] was less than 1 in each case.
As to `CCC(C)(C)C(=O)O[C@H]1C[C@@H](C)C=C2C=C[C@H](C)[C@H](CC[C@@H]3C[C@@H](O)CC(=O)O3)[C@H]21` [SIMVASTATIN], the “fold change (FC)” value is on record as 88 in experiment [26], 354 in [27] and 127 in [28]. Also, the IC50 in [5] was approximately 17000 nM; in experiment [24], approximately 15000 nM.
